Measured values taken from US20230076733A1, “Combination Therapy” (AGENCY FOR SCIENCE, TECHNOLOGY AND RESEARCH, priority 2020, published 2023).
Values joined by “and” are separate entries in the source; they are usually repeats but may differ in a detail not shown here. Equal entries are not always repeated.

Key:
Assay type in all cases: cell-based
[1] = test system: MCAS cells; assay: soft agar colony formation assay, MCAS cells; settings: for Colony count: MCAS, duplicate wells
Method: (§1) The IC50 and EC50 values for each combination partner (a) and (b) with the specific cell lines are determined from the response plot. A dose-response assay for each combination partner and the combination at different concentrations based on the IC50 values of each combination partner was performed. Computed EC50-EC95 values were then generated by a software (as disclosed herein) based on the drug concentration and the respective colony growth numbers.
(§2) 6. Cell lines used and number of cells seeded per well
(§3) (1) Base Layer—0.6% Agar per 300 μL per well.
(§4) Microwave the agar for 1-2 min so that it is completely melted. Add 5.4 ml of the melted agar into 21.6 ml of pre-warmed media (All media and agar preparation is made in excess for 2.5 plates). Aliquot 300 μl of the suspension into each well, avoiding the first and last columns of the plates. Fill the first and last columns of wells with 500 μl of sterile water or phosphate buffered saline. Incubate the plates in 37° C. incubator for 45 min-1 hr to allow agar to solidify.
(§5) (2) Middle Layer— 0.3% Agar plus corresponding number of cells per well
(§6) Trypsinize the adherent cells and suspend them in 5 ml of media. Determine the number of cells in the suspension and calculate the volume of cell suspension required for seeding. Mix the agar and media together first, excluding the volume of cell suspension. Add the cell suspension last into the mixture. Mix well and aliquot 250 μl into each well containing the base layer. Incubate the plates in a 37° C. incubator for 1-1.5 hrs to allow the agar to solidify.
(§7) Prepare the required concentration of compounds based on the IC50 values of each drug.
(§8) (Pre-determine the IC50 values for each drug with the corresponding cell-line using a dose-response assay)
(§9) Row A& B: Aliquot 250 μl of diluted Drug A per well
(§10) Row C&D: Aliquot 250 μl of diluted Drug B per well
(§11) Row E& F: Aliquot 250 μl of diluted Drug A and B mixed at 1:1 ratio for each well
(§12) Assay Results Analysis Method • 1. Score the colonies after 2 to 3 weeks depending on the colony forming status for different cell line. • 2. Before scoring the colonies, add 35 μl MTT (5 mg/ml) to the wells with cells and incubate at 37° C. for 2-3 hrs depending on the intensity of colour development. • 3. Once the colonies are stained, count the total number of colonies formed using the Oxford Optronix GelCount® instrument. • 4. Average the total number of colonies obtained for each drug dose point and represent it as a fraction over the control. This represents the fraction of colony growth. […] Incorporate the fraction of inhibition and the corresponding dose values into the Chou Talalay Software available online (http://www.combosyn.com/) to obtain the combination index values. • 6.
MCAS is a cell line established from ovarian mucinous cystadenocarcinoma (ovarian cancer).

[2] = test system: TFK-1 cells; assay: soft agar colony formation assay, TFK-1 cells; settings: for Colony count: duplicate wells
Method: as §1, §2, §3, §4, §5, §6, §7, §8, §9, §10, §11
as §12, with “6. The combination index values will give an indication as to whether the combined drugs are synergistic, antagonistic or additive in the treated cells, as shown in Table 2 below.” for “6.”
FIG. 10 illustrates a dose-response assay plate containing TFK-1 cells (Test 1) after testing compounds at different concentrations based on the IC50 values of each compound. TFK-1 is a cell line established from cholangiocarcinoma (bile duct adenocarcinoma).

[3] = test system: HPAF-II cells; assay: soft agar colony formation assay, HPAF-II cells; settings: for Colony count: HPAF-II, duplicate wells
Method: as §1, §2, §3, §4, §5, §6, §7, §8, §9, §10, §11
as §12, with “6. The combination index values will give an indication as to whether the combined drugs are synergistic, antagonistic or additive in the treated cells, as shown in Table 2 below.” for “6.”
FIG. 4 illustrates of a dose-response assay plate containing HPAF-II cells (Test 1) after testing compounds at different concentrations based on the IC50 values of each compound. HPAF-II is a cell line established from pancreatic ductal adenocarcinoma (pancreatic cancer).

[4] = test system: EGI-1 cells; assay: soft agar colony formation assay, EGI-1 cells; settings: for Colony count: duplicate wells
Method: as §1, §2, §3, §4, §5, §6, §7, §8, §9, §10, §11
as §12, with “6. The combination index values will give an indication as to whether the combined drugs are synergistic, antagonistic or additive in the treated cells, as shown in Table 2 below.” for “6.”
FIG. 2 illustrates a dose-response assay plate containing EGI-1 cells (Test 1) after testing compounds at different concentrations based on the IC50 values of each compound. EGI-1 is a cell line established from cholangiocarcinoma (bile duct adenocarcinoma).

In the case of `Cn1c(=O)c2c(ncn2CC(=O)Nc2ccc(-c3ccccc3)nn2)n(C)c1=O` [Ex 1, 2-(1,3-dimethyl-2,6-dioxo-2,3-dihydro-1H-purin-7 (6H)-yl)-N-(6-phenylpyridazin-3-yl)acetamide], the IC50 ([1]; MCAS cells, pre-determined by dose-response assay) is reported as 287 nM, the Colony count ([1]; Test 1, 0.25x IC50: dose Olaparib 0.99475, Ex 1 0.07175, combination both 1:1) is reported as 598 and 557 and the Colony count ([1]; Test 1, 0.5x IC50: dose Olaparib 1.9895, Ex 1 0.1435, combination both 1:1) is reported as 462 and 445. For the same compound, the Colony count ([1]; Test 1, 1x IC50: dose Olaparib 3.979, Ex 1 0.287, combination both 1:1) was 301 and 328, the Colony count ([1]; Test 1, 2x IC50: dose Olaparib 7.958, Ex 1 0.574, combination both 1:1) was 252 and 273 and the Colony count ([1]; Test 1, 4x IC50: dose Olaparib 15.918, Ex 1 1.148, combination both 1:1) was 147 and 151. For the same compound, the Colony count ([1]; Test 2, 0.25x IC50: dose Olaparib 0.99475, Ex 1 0.07175, combination both 1:1) was 976 and 921, the Colony count ([1]; Test 2, 0.5x IC50: dose Olaparib 1.9895, Ex 1 0.1435, combination both 1:1) was 744 and 875 and the Colony count ([1]; Test 2, 1x IC50: dose Olaparib 3.979, Ex 1 0.287, combination both 1:1) was 694 and 706. The Colony count ([1]; Test 2, 2x IC50: dose Olaparib 7.958, Ex 1 0.574, combination both 1:1) was 644 and 588, the Colony count ([1]; Test 2, 4x IC50: dose Olaparib 15.916, Ex 1 1.148, combination both 1:1) was 419 and 326 and the Colony count ([2]; TFK-1, Test 1, 0.25x IC50: dose Olaparib 4.5, Ex 1 3, combination both 1:1) was 921 and 950. The Colony count ([2]; TFK-1, Test 1, 0.5x IC50: dose Olaparib 9, Ex 1 6, combination both 1:1) was 805 and 700, the Colony count ([2]; TFK-1, Test 1, 1x IC50: dose Olaparib 18, combination both 1:1) was 557 and 581 and the Colony count ([2]; TFK-1, Test 1, 2x IC50: dose Olaparib 36, Ex 1 24, combination both 1:1) was 402 and 384. For the same compound, the Colony count ([2]; TFK-1, Test 1, 4x IC50: dose Olaparib 72, Ex 1 48, combination both 1:1) was 239 and 198, the Colony count ([2]; TFK-1, Test 2, 0.25x IC50: dose Olaparib 4.5, Ex 1 3, combination both 1:1) was 916 and 840 and the Colony count ([2]; TFK-1, Test 2, 0.5x IC50: dose Olaparib 9, Ex 1 6, combination both 1:1) was 770 and 818. For the same compound, the Colony count ([2]; TFK-1, Test 2, 1x IC50: dose Olaparib 18, combination both 1:1) was 567 and 559, the Colony count ([2]; TFK-1, Test 2, 2x IC50: dose Olaparib 36, Ex 1 24, combination both 1:1) was 336 and 249 and the Colony count ([2]; TFK-1, Test 2, 4x IC50: dose Olaparib 72, Ex 1 48, combination both 1:1) was 101 and 148. For the same compound, the IC50 ([2]; TFK-1 cells, pre-determined by dose-response assay) was 12 µM, the IC50 ([3]; HPAF-II cells, pre-determined by dose-response assay) was 7.7 nM and the Colony count ([3]; Test 1, 0.25x IC50: dose Olaparib 9.7975, Ex 1 0,001929, combination both 1:1) was 564 and 493. For the same compound, the Colony count ([3]; Test 1, 0.5x IC50: dose Olaparib 19.535, Ex 1 0.003883, combination both 1:1) was 499 and 416, the Colony count ([3]; Test 1, 1x IC50: dose Olaparib 39.19, Ex 1 0,007577, combination both 1:1) was 387 and 453 and the Colony count ([3]; Test 1, 2x IC50: dose Olaparib 78.38, Ex 1 0.015354, combination both 1:1) was 362 and 345. The Colony count ([3]; Test 1, 4x IC50: dose Olaparib 156.76, Ex 1 0.030707, combination both 1:1) was 260 and 201, the Colony count ([3]; Test 2, 0.25x IC50: dose Olaparib 9.7975, Ex 1 0.001929, combination both 1:1) was 350 and 489 and the Colony count ([3]; Test 2, 0.5x IC50: dose Olaparib 13.595, Ex 1 0.003838, combination both 1:1) was 415 and 426. The Colony count ([3]; Test 2, 1x IC50: dose Olaparib 39.19, Ex 1 0.007677, combination both 1:1) was 296, the Colony count ([3]; Test 2, 2x IC50: dose Olaparib 78.38, Ex 1 0.015354, combination both 1:1) was 200 and 150 and the Colony count ([3]; Test 2, 4x IC50: dose Olaparib 156.76, Ex 1 0.030707, combination both 1:1) was 127 and 105. For the same compound, the Colony count ([4]; EGI-1, Test 1, 0.25x IC50: dose Olaparib 2.16362, Ex 1 0.00687, combination both 1:1) was 1742 and 1591, the Colony count ([4]; EGI-1, Test 1, 0.5x IC50: dose Olaparib 4.32725, Ex 1 0.01375, combination both 1:1) was 1351 and the Colony count ([4]; EGI-1, Test 1, 1x IC50: dose Olaparib 8.6545, Ex 1 0.0275, combination both 1:1) was 985 and 912. For the same compound, the Colony count ([4]; EGI-1, Test 1, 2x IC50: dose Olaparib 17.309, Ex 1 0.055, combination both 1:1) was 608 and 646, the Colony count ([4]; EGI-1, Test 1, 4x IC50: dose Olaparib 34.618, Ex 1 0.11, combination both 1:1) was 515 and 465 and the Colony count ([4]; EGI-1, Test 2, 0.25x IC50: dose Olaparib 2.16362, Ex 1 0.00687, combination both 1:1) was 1488 and 1451. The Colony count ([4]; EGI-1, Test 2, 0.5x IC50: dose Olaparib 4.32725, Ex 1 0.01375, combination both 1:1) was 1242 and 1139, the Colony count ([4]; EGI-1, Test 2, 1x IC50: dose Olaparib 8.6545, Ex 1 0.0275, combination both 1:1) was 816 and 771 and the Colony count ([4]; EGI-1, Test 2, 2x IC50: dose Olaparib 17.309, Ex 1 0.055, combination both 1:1) was 568 and 476. The Colony count ([4]; EGI-1, Test 2, 4x IC50: dose Olaparib 34.618, Ex 1 0.11, combination both 1:1) was 434 and 412 and the IC50 ([4]; EGI-1 cells, pre-determined by dose-response assay) was 27.5 nM.
